Measured values taken from patent US20070031511A1, “Method of treatment” (priority 2003, published 2007).
Like-named read-outs stand apart in the source and are kept apart here. Where a SMILES comes first, the peptide text is derived from it. Where no end group is shown, it is not given here. [ ]: non-standard residue; d: D form. pGlu = O=C1CC[C@@H](C(=O)O)N1

Tests used:
CCK-2 receptor [1] = molecular target: T1, CCK-2 receptor (Homo sapiens, UniProt P32239); experiment: Gamide-stimulated inositol phosphate production in COS-7 cells transfected with the CCK-2 receptor; type: cell-based; parameters: COS-7 cells transiently transfected with CCK-2 receptor cDNA; expressed in transfected cells; host or cells: COS-7; settings: for Stimulation of inositol phosphate production: 10 nM peptide
T1 sequence (P32239 1-447): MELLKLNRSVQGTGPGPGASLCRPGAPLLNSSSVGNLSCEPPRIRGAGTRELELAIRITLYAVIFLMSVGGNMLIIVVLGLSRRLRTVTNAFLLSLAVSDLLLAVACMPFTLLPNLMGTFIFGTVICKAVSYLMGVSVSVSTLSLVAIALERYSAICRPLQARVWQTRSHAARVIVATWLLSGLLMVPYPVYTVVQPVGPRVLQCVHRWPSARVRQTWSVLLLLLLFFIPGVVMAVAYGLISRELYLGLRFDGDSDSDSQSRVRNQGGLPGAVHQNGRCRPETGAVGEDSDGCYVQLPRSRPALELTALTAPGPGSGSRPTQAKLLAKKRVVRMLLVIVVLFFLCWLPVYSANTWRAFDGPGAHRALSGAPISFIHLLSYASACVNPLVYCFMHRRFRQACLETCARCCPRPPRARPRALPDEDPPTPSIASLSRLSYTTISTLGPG
Protocol: (§1) Intracellular inositol phosphate production was determined as described previously (Qian et al, 1993). IMGE-5 cells (10^5 cells/ml) were plated in 24-multiwell culture plates in DMEM supplemented with 10% FBS, 200 IU/ml penicillin and 200 μg/ml streptomycin. 24 h later, cells were incubated with DMEM supplemented with antibiotics and Myo-[2-^3H]inositol (2.5 μCi/well) and shifted to 39° C. for 16 h. Cells were then washed with pre-warmed DMEM and incubated (20-30 minutes, 37° C.) with DMEM supplemented with 20 mM LiCl. Loaded cells were then washed in 1 ml of IP buffer (135 mM NaCl, 20 mM N-(2-hydroxyethyl)piperazine-N′-(2-ethanesulfonic acid), 2 mM CaCl2, 1.2 mM MgSO4, 1 mM ethylene glycol-bis(2-aminoethylether)-N,N,N′,N′-tetraacetic acid, 10 mM LiCl, and 0.5% bovine serum albumin, pH 7.45) and incubated with or without agonist in a final volume of 0.5 ml of IP buffer. After 1-h incubation at 37° C., the reaction was stopped by removing the incubation medium and adding 1 ml of a mixture of ethanol/HCl (2000:1; v/v). One ml of each aliquot was applied to a column containing 1.6 ml of a 1:2 (v/v) Dowex AG-1-X8 anion exchange resin in distilled water. The columns were washed with 4 ml of distilled water, followed by 4 ml of 40 mM HCOONH4, and inositol phosphates were eluted with 4 ml of 1 M HCOONH4. The radioactivity of each eluate was counted after addition of Complete phase combining system solution (Amersham, UK). For the positive control, IMGE-5 cells were incubated with a combination of 30 mM NaF and 10 μM AlCl3 under the same experimental conditions.
Gamide-stimulated inositol phosphate production was measured in COS-7 cells transfected with the CCK-2 receptor. […] Bismuth ions alone had no effect on inositol phosphate production in CCK-2 receptor-transfected COS-7 cells and HT29 cells, even at the highest concentration tested.
We then investigated the role of the individual glutamates in biological activity. The effects of the mutants GamideE7A and GamideE8,9A on inositol phosphate production in COS-7 cells transiently transfected with the CCK-2 receptor were compared.

CCK-2 receptor [2] = molecular target: T1, CCK-2 receptor; experiment: [125I]-BH-CCK8 displacement, CCK-2 receptor on Jurkat cells; type: binding; settings: for Ratio IC50 mutant/IC50 Gamide: T-lymphoblastoid Jurkat cells; for % Maximum Binding (Jurkat): binding in the absence of competitor, fitted, mean ± S.E.
Protocol: (§2) Non-specific binding was evaluated with […] of unlabelled CCK8. Incubation was stopped by adding 2 ml of ice-cold PBS containing 2% bovine serum albumin. After centrifugation, supernatants were removed and the radioactivity bound to the cell membranes was measured in a γ-counter (LKB, Wallac, Finland).

CCK-2 receptor [3] = molecular target: T1, CCK-2 receptor; experiment: [125I]-BH-CCK8 displacement, CCK-2 receptor on transiently transfected COS-7 cells; type: binding; parameters: COS-7 cells transiently transfected with CCK-2 receptor cDNA; expressed in transfected cells; host or cells: COS-7; settings: for % Maximum Binding (COS-7): binding in the absence of competitor, fitted, mean ± S.E.; for Predicted ordinate intercept, FIG. 21: single experiment; for Ratio IC50 mutant/IC50 Gamide: transfected COS-7 cells
Protocol: as §2
The lines of best fit shown in FIG. 21 were obtained by nonlinear regression to a single site model with the program Sigmaplot.

[4] = Quenching of peptide tryptophan fluorescence by ferric ions (stoichiometry, apparent Kd); type: binding; settings: pH 4.0; mean ± S.E.; read-out: Kd (μM) of ferric ion binding (amidated gastrin17 and related peptides)
Protocol: The tryptophan fluorescence of peptide solutions was measured in 3 mL quartz cuvettes thermostated at […], with a Spex Fluorolog-2 spectrofluorimeter (Spex Industries, Edison, N.J.), with the excitation and emission wavelengths set at 290 and 345 nm, respectively. The quenching of tryptophan fluorescence induced by the binding of metal ions was used to calculate the fraction of binding sites occupied, fa: fa=(yf−y)/(yf−yb) where y is the fluorescence signal at a given concentration of metal ions and yb and yf are the signals when the binding sites are fully occupied and unoccupied, respectively (Winzor et al, 1995). The stoichiometry, p, and apparent dissociation constant, Kd, were then obtained, using the program Sigmastat (Jandel Scientific, San Rafael, Calif.), from the intercept and slope of a linear regression of the data transformed as described by Winzor and Sawyer (1995) in terms of the equation Cs/fa=pCa+Kd/(1−fa) where Cs is the total concentration of metal ions, and Ca is the total concentration of glycine-extended gastrin17. For the bismuth binding studies, the data was fitted by non-linear regression with the program Sigmaplot (Jandel Scientific, San Rafael, Calif.) to the equations for models with one binding site or two binding sites with identical affinities: fa=x/(Kd1+x) or to the model with two binding sites with different affinities: fa=(Kd1·x+Kd2·x+2x^2)/2(Kd1·Kd2+Kd1·x+Kd2·x+x^2) where x is the concentration of free metal ions, Kd1 is the first site dissociation constant and Kd2 is the second site dissociation constant. For the one-site model the value of x at any given total concentration of metal ions was obtained by exact solution of the appropriate quadratic (Malby et al, 2001). For the two-site models the value of x was obtained by an iterative Newton-Raphson procedure (Linse et al, 1991). Absorption Spectroscopy
The tryptophan fluorescence of progastrin6-80, glycine-extended gastrin17 and related peptides was measured in the presence of increasing concentrations of ferric ions in 10 mM sodium acetate, pH 4.0, 100 mM NaCl, 0.005% Tween 20. […] Values from the indicated number of independent experiments were combined to obtain the mean values (±S.E.) presented above. No binding of ferric ions to Ggly1-4 or Ggly12-18 was observed.
The tryptophan fluorescence of amidated gastrin17 and related peptides was measured in the presence of increasing concentrations of ferric ions at pH 4.0 (8). Values of the stoichiometry and the apparent dissociation constant (Kd) were obtained from linear transformations of the data presented in FIG. 20A by least squares fitting. Values from the indicated number of independent experiments were combined to obtain the mean values (±S.E.) presented above.

hepatoma cell lines = settings: Kicic et al, 2001; cited from earlier work
[5] = tested on: HT29 human colorectal carcinoma cells; experiment: Ggly-stimulated inositol phosphate production in HT29 cells; type: cell-based; settings: HT29 cells
Protocol: as §1
Ggly-stimulated inositol phosphate production was measured in HT29 human colorectal carcinoma cells.

[6] = pH 4.0; Ref. 8 given in table; read-out: Kd (μM), apparent dissociation constant for ferric ions; cited from earlier work
IMGE-5 cells = experiment: IMGE-5 cell proliferation, MTT assay; type: cell-based, mice
Protocol: The IMGE-5 cell line was established from the gastric mucosa of mice transgenic for a temperature-sensitive mutant of the SV40 large T antigen (Hollande et al, 2001). IMGE-5 cells were generally grown at 33° C. in DMEM containing 1 unit/ml γ-interferon, 10% FBS, 100 U/ml penicillin, and 100 μg/ml streptomycin (permissive conditions). For all experiments, cells were transferred to 39° C. in the same medium without […] (non-permissive conditions), where they display differentiated characteristics such as expression of functional adherens and tight junctions. All experiments have been performed on cells between passages 20 and 35.
A colorimetric assay was used to measure cell proliferation. Briefly, IMGE-5 cells were seeded in a 96-well plate at a density of 10^4 cells/well in DMEM containing 10% FBS and antibiotics. The following day, cells were synchronized in Go by incubation for 24 h in the same medium lacking FBS. The medium was replaced the next day with fresh medium containing 1% FBS and antibiotics and the peptides under investigation, and incubation was continued for 72 h. 15 μl of 5 mg/ml 3-(4,5-dimethylthiazol-2-yl)-2-5-diphenyltetrazolium bromide (MTT, Sigma, St Louis Mo.) was added per well, and the plate was incubated at 37° C. for 4 h before the medium was discarded. 200 μl 40 mM HCl in isopropanol was added to lyse the cells, and the absorbance at 570 nm was read on a BioRad Model 550 Microplate reader (BioRad, Hercules, Calif.).

Question: With CSCC[C@H](NC(=O)[C@H](Cc1c[nH]c2ccccc12)NC(=O)CNC(=O)[C@H](Cc1ccc(O)cc1)NC(=O)[C@H](C)NC(=O)[C@H](CCC(=O)O)NC(=O)[C@H](CCC(=O)O)NC(=O)[C@H](CCC(=O)O)NC(=O)[C@H](C)NC(=O)[C@H](CCC(=O)O)NC(=O)[C@H](CC(C)C)NC(=O)[C@H](Cc1c[nH]c2ccccc12)NC(=O)[C@@H]1CCCN1C(=O)CNC(=O)[C@@H]1CCC(=O)N1)C(=O)N[C@@H](CC(=O)O)C(=O)N[C@@H](Cc1ccccc1)C(N)=O [GamideE7A] ([pGlu]GPWLEAEEEAYGWMDF-NH2) as the compound, how does the “Stimulation of inositol phosphate production” value (CCK-2 receptor [1]) read?
Answer: No significant difference was observed in the extent of stimulation

Question: And the “Ratio IC50 mutant/IC50 Gamide” value (CCK-2 receptor [2])?
Answer: 2.4

Question: What about the “% Maximum Binding (Jurkat)” value (CCK-2 receptor [2]) of the same compound?
Answer: 96.7 ± 4.6%

Question: What about the “% Maximum Binding (COS-7)” value (CCK-2 receptor [3]) of the same compound?
Answer: 92.0 ± 1.0%

Question: What about the “Predicted ordinate intercept, FIG. 21” value (CCK-2 receptor [3]) of the same compound?
Answer: 91.6%

Question: What about the “Ratio IC50 mutant/IC50 Gamide” value (CCK-2 receptor [3]) of the same compound?
Answer: 1.4

Question: What about the Kd [4] of the same compound?
Answer: 0.17 ± 0.03 µM

Question: With O=C(O)CN(CCN(CC(=O)O)CC(=O)O)CC(=O)O [EDTA, ethylene diamine tetraacetic acid] as the compound, how does the “Inhibition of proliferation of hepatoma cell lines in vitro” value (shortened to “Inhibition”) (hepatoma cell lines) read?
Answer: ineffective

Question: What does the source list for [F][Al-]([F])([F])[F] [AlF4^−]?
Answer: Increase in inositol phosphate production [5]: 2.6 fold; Increase in inositol phosphate production (CCK-2 receptor [1]; COS-7 cells transfected with the CCK-2 receptor, 10 μM AlF4−, 10 nM Gamide): 5 fold

Question: Which results are given for “ZGPWLE5A ([pGlu]GPWLEEEEEA; listed as Homo sapiens) [Ggly1-11]”?
Answer: Kd [6]: 1.2 ± 0.04 µM; Stimulation of IMGE-5 cell proliferation (IMGE-5 cells; MTT assay, peptides shown at 1 nM (FIGS. 7A, 8A)): did increase proliferation, but to a significantly lesser extent than Ggly; Reduction of activity relative to Ggly (IMGE-5 cells; cell proliferation or wound healing assays (FIG. 7)): approximately 50%

Question: With Cc1ncc(CO)c(C=NNC(=O)c2ccncc2)c1O [pyridoxal isonicotinoyl hydrazone] as the compound, how does the “Inhibition” value (hepatoma cell lines) read?
Answer: effective inhibitors

Question: What does the source list for CSCC[C@H](NC(=O)[C@H](Cc1c[nH]c2ccccc12)NC(=O)CNC(=O)[C@H](Cc1ccc(O)cc1)NC(=O)[C@H](C)NC(=O)[C@H](CCC(=O)O)NC(=O)[C@H](C)NC(=O)[C@H](C)NC(=O)[C@H](CCC(=O)O)NC(=O)[C@H](CCC(=O)O)NC(=O)[C@H](CC(C)C)NC(=O)[C@H](Cc1c[nH]c2ccccc12)NC(=O)[C@@H]1CCCN1C(=O)CNC(=O)[C@@H]1CCC(=O)N1)C(=O)N[C@@H](CC(=O)O)C(=O)N[C@@H](Cc1ccccc1)C(N)=O [GamideE8, 9A] ([pGlu]GPWLEEAAEAYGWMDF-NH2)?
Answer: Stimulation of inositol phosphate production (CCK-2 receptor [1]): No significant difference was observed in the extent of stimulation; Ratio IC50 mutant/IC50 Gamide (CCK-2 receptor [2]): 2.2; % Maximum Binding (Jurkat) (CCK-2 receptor [2]): 97.8 ± 9.0%; % Maximum Binding (COS-7) (CCK-2 receptor [3]): 98.4 ± 2.1%; Predicted ordinate intercept, FIG. 21 (CCK-2 receptor [3]): 91.0%; Ratio IC50 mutant/IC50 Gamide (CCK-2 receptor [3]): 4.1; Kd [4]: 0.16 ± 0.06 µM

Question: For Cc1c(O)c(=O)ccn1C [1,2-dimethyl-3-hydroxypyridin-4-one], which “Inhibition” value (hepatoma cell lines) is on record?
Answer: effective inhibitors

Question: For O=C(O)CN(CCN(CC(=O)O)CC(=O)O)CCN(CC(=O)O)CC(=O)O [DTPA, diethylene triamine pentaacetic acid], which “Inhibition” value (hepatoma cell lines) is on record?
Answer: the best inhibitor of all those tested
